Source: patent publication US20060178398A1, “Therapeutic compounds for treating dyslipidemic conditions” (priority 2004, published 2006)

Test system: Caco-2 cells
Test: Cholesterol efflux from cultured human cells (Caco-2, 3H-cholesterol, apoA-I)
Type: cell-based
Settings: 24 h, mean of quadruplicate incubations
Description: To assess the relevant biological activity of the LXR agonists, certain compounds were tested for their ability to increase cholesterol efflux from cultured human cells, as described by Sparrow et al., JBC, 277, 10021-10027, Mar. 22, 2002. Caco-2 cells, which are of human origin, were obtained from ATCC and grown in Opti-MEM (Gibco #51985-034) containing 10% FCS, non-essential amino acids (Gibco #11140-050), and vitamins (Gibco # 11120-052). Caco-2 cells were plated at 100,000 cells/well in 48-well plates. After four days the cells had reached confluence, and were then labeled with ^3H-cholesterol by incubation for 24 hours in fresh growth media containing ^3H-cholesterol (10 μCi/ml). Following labeling with ^3H-cholesterol, cells were washed and incubated an additional 24 hours in serum-free media containing 1 mg/ml BSA, to allow for equilibration of ^3H-cholesterol with intracellular cholesterol. Cholesterol efflux was initiated by adding 10 μg/ml apoA-I, with or without compound, in serum-free medium. Compounds were added to cell culture medium from DMSO solutions, and control cells received an equivalent amount of DMSO, never exceeding 0.1%. After 24 hours, media were harvested and cells dissolved in 0.1 M NaOH. Media were briefly centrifuged to remove non-adherent cells, and then aliquots of both the supernatants and the dissolved cells were subjected to liquid scintillation spectrometry to determine radioactivity. Cholesterol efflux is expressed as a percentage, calculated as (^3H-cholesterol in medium/(^3H-cholesterol in medium +^3H-cholesterol in cells))×100.

SMILES	% cholesterol efflux (compound concentration 10 nM) [%]	% cholesterol efflux (compound concentration 30 nM) [%]	% cholesterol efflux (compound concentration 100 nM) [%]	% cholesterol efflux (compound concentration 300 nM) [%]	% cholesterol efflux (compound concentration 1000 nM) [%]	% cholesterol efflux (compound concentration 3000 nM) [%]
CCCc1c(OCCCN(C)c2cnc(CC(=O)O)cn2)ccc2c(C(F)(F)F)noc12 [Example 25, {5-[methyl(3-{[7-propyl-3-(trifluoromethyl)-1,2-benzisoxazol-6-yl]oxy}propyl)amino]pyrazin-2-yl}acetic acid]	3.4	4.4	4.3	6.6	7.4	7.7
CCCc1c(OCCCn2ccc3cc(CC(=O)O)c(Cl)cc32)ccc2c(C(F)(F)F)noc12 [Example 40, [6-chloro-1-(3-{[7-propyl-3-(trifluoromethyl)-1,2-benzisoxazol-6-yl]oxy}propyl)-1H-indol-5-yl]acetic acid]	4.9	5.2	5.9	6.3	6.5	7.7
